Measurements: patent US12714702B2, “Compositions and methods for treating or preventing pulmonary hypertension” (priority 2020, dated 2026)

Assays:
[1] = system: serum-starved bovine PASMC; experiment: Anti-proliferative efficacy in serum-starved bovine PASMC; format: cell-based; conditions: 1.5-5.0 μM, time- and concentration-dependent
Experimental: (§1) Data represent mean±SD (n=5) repeated over 3 experiments. *p<0.05.
(§2) Human or bovine PASMC were treated with varying concentrations of QA (1.5-, 3.1-, and 6.2-μM). Cellular proliferation was measured at day 1, day 3 and day 5 by following the manufacturer's protocol. Briefly, a reagent mix of nucleic acid stain and background suppressor were added in PBS followed by addition of the mix in treatment wells (100 μL/well). The plates were incubated at 37° C./5% CO2 for one hour followed by evaluation of fluorescence at 485 ex/535 em. Proliferation inhibition was analyzed relative to control wells on each time point. Data was averaged from two trials with n=6 for SMC II and one trial of n=4 for SMC III.
(§3) In-vitro studies to measure anti-proliferative activity of QA against pulmonary hypertension were performed using primary human PASMC (FIG. 3), primary bovine PASMC (FIG. 4) and high altitude PASMC (HAPASMC) (FIG. 4). HAPASMC, due to prolonged hypoxia exposure, are known to be hyper-proliferative in regular culture conditions, while hyper-proliferation was induced in PASMC cells by 24 hour serum starvation, or by exposure to 5-hydroxytryptamine (5-HT). […]

[2] = system: Ki67, PCNA, vWF, α-SMA in MCT-induced PAH animal lung tissue; experiment: MCT model, immunofluorescence of lung tissue; format: in vivo, rat; conditions: MCT rats
Experimental: FIGS. 12A-12B show immunofluorescence imaging for MCT-induced PAH animal lung tissue slides.
Preclinical in-vivo studies for QA were earlier performed at a dose of 10 mg/kg once-a-day in monocrotaline (MCT) induced therapeutic PAH model. Hemodynamic parameters were collected and lung tissues were also collected and were sectioned for visualizing the impact of QA treatment on various PAH biomarkers in-vivo.
OCT compound embedded Tissue sections for control animals, MCT induced PAH animals and QA treated animals were further subjected to immunofluorescent staining to analyze expression levels of essential molecular markers. Briefly, tissue sections were washed twice with 1×PBS followed by blocking for one hour using a blocking buffer (Cell Signaling Technology, Danvers, MA, USA). Followed by blocking, tissue sections were stained with respective primary antibodies overnight; VWF #ab15419, 1:100 (abcam), α-SMA #489385, 1:500 (CST), Ki67 #9129S (CST), 1:250 and PCNA #2586S (CST), 1:100. Following day, tissue sections were washed with 1×PBS twice followed by incubation with Anti-rabbit IgG (H+L), F(ab′)2 Fragment (Alexa Fluor® 488 Conjugate) #4412S 1:250 (CST) and Anti-mouse IgG (H+L), F(ab′)2 Fragment (Alexa Fluor® 594 Conjugate) #8890S, 1:500 (CST) for one hour. Further, sections were washed with 1×PBS twice and the nuclei were stained with DAPI using Vectashield hardset antifade mounting medium with DAPI (Vector Laboratories, Burlingame, CA, USA). Tissues were imaged using Zeiss Axioplan 2 fluorescence microscope (Carl Zeiss AG, Jena, Germany).
Immunofluorescence imaging of the MCT-induced PAH animal lung tissue slides was also performed.

[3] = system: 5-HT induced bovine PASMC; experiment: Anti-proliferative efficacy in 5-hydroxytryptamine induced hyper-proliferation; format: cell-based; conditions: 1.5-5.0 μM, time- and concentration-dependent
Experimental: as §1, §2, §3

[4] = system: LC3B-II in high-altitude bovine PASMCs; experiment: Autophagy inhibition assay (LC3B-II expression), western blot; format: cell-based; conditions: high altitude bovine PASMC cell lysate, QA 5 μM
Experimental: In FIGS. 9A-9B, PASMC were serum starved for 24 hours, and then treated with varying QA concentrations in serum-starved media. Quantification was performed using Cyto-ID® autophagy kit and Annexin-V/FITC apoptosis kit. […] In FIG. 9C, autophagy inhibition by QA (5 μM) as depicted by increase in LC3B-II concentration in bovine high altitude PASMC quantified by western blot assay kit. Data represent mean±SD (n=3). *p<0.05.
High-altitude bovine PASMCs were used to determine the effect of QA on LC3B-II, an autophagy marker, by western blotting (#3868S, LC3B (D11) XP Rabbit monoclonal antibody, Cell Signaling, Danvers, MA).
Autophagy inhibition (lysosomal fusion with autophagosomes) by QA was examined. Bovine PASMCs were serum starved in FBS-free media for 24 hours, and then treated with QA (2.5 and 5 μM) for 24 hours. Autophagic inhibition was measured with Cyto-ID® autophagy detection kit. […] QA-induced autophagy inhibition by targeting LC3B-II expression was examined using HAPASMCs.

[5] = system: IL-6, Acta2, serpinel, Id3, BMPR2 mRNA; experiment: SU5416/hypoxia model, mRNA expression by real time PCR; format: in vivo, rat; conditions: SU5416/hypoxia rats
ITCH/AIP4 E3 ligase = ITCH/AIP4 E3 ligase (Homo sapiens, UniProt Q96J02); experiment: ITCH/AIP4 E3 ligand activity assay, ubiquitin ELISA (UbiQuant); format: biochemical; conditions: 20 μM dose
Sequence of ITCH/AIP4 E3 ligase (Q96J02 whole entry): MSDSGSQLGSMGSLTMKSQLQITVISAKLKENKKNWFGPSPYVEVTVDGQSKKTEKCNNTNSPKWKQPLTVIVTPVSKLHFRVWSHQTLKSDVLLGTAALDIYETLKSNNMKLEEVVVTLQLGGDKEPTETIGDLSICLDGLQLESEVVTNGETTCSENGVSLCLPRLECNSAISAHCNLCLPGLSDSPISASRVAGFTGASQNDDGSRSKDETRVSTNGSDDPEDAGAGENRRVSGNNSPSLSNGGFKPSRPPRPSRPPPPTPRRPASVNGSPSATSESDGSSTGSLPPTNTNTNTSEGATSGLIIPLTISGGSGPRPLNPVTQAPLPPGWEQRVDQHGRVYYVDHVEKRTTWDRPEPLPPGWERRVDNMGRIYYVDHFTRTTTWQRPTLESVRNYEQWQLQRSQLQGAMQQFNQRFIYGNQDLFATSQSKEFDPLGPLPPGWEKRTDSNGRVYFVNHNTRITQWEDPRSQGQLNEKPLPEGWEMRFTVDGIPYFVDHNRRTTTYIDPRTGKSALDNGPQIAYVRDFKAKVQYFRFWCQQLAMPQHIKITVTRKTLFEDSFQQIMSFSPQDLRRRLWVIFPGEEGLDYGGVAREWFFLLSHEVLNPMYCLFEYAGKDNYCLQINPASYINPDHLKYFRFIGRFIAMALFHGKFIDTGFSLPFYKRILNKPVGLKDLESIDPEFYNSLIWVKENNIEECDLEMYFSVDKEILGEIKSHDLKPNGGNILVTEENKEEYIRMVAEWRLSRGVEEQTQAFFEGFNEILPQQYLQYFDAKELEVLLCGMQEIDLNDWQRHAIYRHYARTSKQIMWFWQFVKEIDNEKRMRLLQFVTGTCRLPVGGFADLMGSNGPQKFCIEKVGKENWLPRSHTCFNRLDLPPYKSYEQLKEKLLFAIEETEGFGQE
Experimental: The ligand activity inhibition by QA at multiple concentrations (0, 10, or 20 μM) in presence of ubiquitin was quantified.

bovine HAPASMC = experiment: Anti-proliferative efficacy in high-altitude bovine PASMC; format: cell-based; conditions: inherently highly proliferating bovine HAPASMC, 1.5-5.0 μM, time- and concentration-dependent
Experimental: as §1, §2, §3

primary human PASMCs = experiment: Caspase-3 assay (apoptotic induction); format: cell-based; conditions: 6-hour treatment, 5 and 10 μM, concentration-dependent
Experimental: Caspase-3 level in SMC II cells was evaluated using EnzCheck™ Caspase-3 assay kit (ThermoFisher Scientific, Waltham, MA, USA) following the manufacturer's protocol. Briefly, upon 90% confluency, SMC II cells were harvested and seeded in 100 mm TC treated culture dishes at a density of 250,000 cells/well and allowed to adhere overnight. Following day, cells were treated with QA (5- and 10-μM) for 6 hours followed by harvesting. Harvested cells were lysed using a lysis buffer for 30 minutes on ice. The cells were centrifuged, and supernatant was used to analyze levels of a caspase-3 substrate aminomethylcoumarin (AMC)-derived substrate Z-DEVD-AMC (fluorescence measurement at 360 ex/460 em).
An apoptotic induction assay, i.e., Caspase-3 assay was performed to understand QA's impact on cellular apoptosis in primary human PASMCs following 6-hour treatment. […] Moreover, another apoptotic induction assay, i.e., Annexin V FITC assay was also used to measure the effects of QA on serum-starved bovine PASMCs.

[6] = system: SU5416/hypoxia-induced PAH model; conditions: SU5416/hypoxia rats, QA 10 mg/kg i.p. once-a-day for 3 weeks from Day 1

**Q.** Which results are given for CCN(CC)CCCC(C)Nc1c2ccc(Cl)cc2nc2ccc(OC)cc12 (stereo not shown) [QA, quinacrine]?
**A.** proliferation [1]: significantly inhibits proliferation; expression of Ki67 [2]: reduction in expression; expression of PCNA [2]: reduction in expression; expression of vWF ([2]; compared to control): did not show any reduction in expression; expression of α-smooth muscle actin (α-SMA) ([2]; compared to control): did not show any reduction in expression; proliferation [3]: significantly inhibits proliferation; increase in LC3B-II expression [4]: > 2 fold; BMPR2 mRNA expression [5]: no significant changes; Acta2 gene (smooth muscle actin-alpha) expression ([5]; real time PCR): decreased; IL-6 mRNA levels ([5]; real time PCR): decreased; Id3 mRNA level ([5]; real time PCR): did not significantly change; mRNA levels of serpinel ([5]; real time PCR): reduced; reduction in total polyubiquitination resulting from ITCH/AIP4 activity (ITCH/AIP4 E3 ligase): ~ 25%; proliferation (bovine HAPASMC): significantly inhibits proliferation; caspase-3 levels (primary human PASMCs): increased caspase-3 levels; RVSP [6]: 45.6±7.9 mmHg
